Test results published in patent US4889634A, “Dialysate solution containing hydroxypropyl-beta-cyclodextrin and method of using same” (priority 1988, dated 1989).

Assays:
[1] = system: normal rats; experiment: relative nephrotoxicity of HPBCD and BCD, intraperitoneal; type: in vivo, rat; conditions: for Mortality (died/total): BCD 0.75% w/v, HPBCD 1.5 and 3% w/v, 15 ml/100 g i.p.
Description: A first study was conducted to determine the relative nephrotoxicity of HPBCD and BCD. A control group using phosphate buffer solution was also included in the study.
Three groups of normal rats were utilized in this study. […] Group I rats were given the vehicle solution of phosphate buffer saline (PBS). Group II rats were subdivided into three sub-groups. The first sub-group received a solution having a concentration of 1.5% HPBCD, the second sub-group received a solution having a concentration of 3% HPBCD while the third sub-group received a solution having a concentration of 6% HPBCD. Group III rats were given a solution having a concentration of 0.75% BCD.
Animals from each group were sacrificed at 24 and 72 hours after injection of the peritoneal solution. The animals were sacrificed under general anesthesia and exsanguinated from the abdominal aorta. Plasma was separated and blood urea nitrogen and creatinine was measured and used as an index of renal toxicity of the solutions.

[2] = system: rats [Crl:CD(SD) BR strain]; experiment: 14-day intravenous toxicity study in rats; type: in vivo, rat
Description: As part of the toxicological evaluation of HPBCD, control groups of animals were dosed with HPBCD alone.
Two groups (5/sex/group) of rats [Crl:CD(SD) BR strain] were used for this study. Control rats were given 200 mg of salt per kilogram of body weight intravenously administered in a saline control solution comprising 20% salt by weight in water. The saline control was administered every second day for 14 days (i.e. seven injections). The treated rats were given 200 mg of HPBCD per kilogram of body weight intravenously administered (200 mg/kg i.v. HPBCD) via a HPBCD solution containing 20% HPBCD by weight in water on the same injection schedule. […] At the end of the study the animals were necropsied, gross pathology was observed, histopathological samples were prepared and blood was drawn for clinical laboratory measurements.

[3] = 1 day, BCD 0.75%, HPBCD 1.5 and 3%
[4] = 3 day, BCD 0.75%, HPBCD 1.5 and 3%
[5] = female rats, 200 mg/kg i.v., 14 days
[6] = male rats, 200 mg/kg i.v., 14 days

hydroxypropyl-beta-cyclodextrin [HPBCD]
Mortality (died/total) ([1]; 1 day): 0/6 | Kidney size [1, 3]: normal | Kidney weight [1, 3]: normal | BUN ([1]; 1 day, BCD 0.75%, HPBCD 1.5 and 3%, Table III): 14.8 mg/dL | Mortality (died/total) ([1]; 3 day): 0/6 | Kidney size [1, 4]: normal | Kidney weight [1, 4]: normal | BUN ([1]; 3 day, HPBCD 1.5 and 3%, Table III): 19.8 mg/dL | BUN ([1]; HPBCD 1.5%, 1d, n = 6): 14.8 mg/dL | Final body weight Wt (f) ([1]; HPBCD 1.5%, 1d, n = 6): 210 g | Initial body weight Wt (i) ([1]; HPBCD 1.5%, 1d, n = 6): 213 g | Left kidney weight (Lt kd) ([1]; HPBCD 1.5%, 1d, n = 6): 867 mg | Left kidney/body weight (Lt kd/wt) ([1]; HPBCD 1.5%, 1d, n = 6): 4.11 mg/g | Mortality ([1]; HPBCD 1.5%, 1d, n = 6): 0% | Right kidney weight (Rt kd) ([1]; HPBCD 1.5%, 1d, n = 6): 860 mg | Right kidney/body weight (Rt kd/wt) ([1]; HPBCD 1.5%, 1d, n = 6): 4.08 mg/g | BUN ([1]; HPBCD 1.5%, 3d, n = 6): 19.8 mg/dL | Final body weight Wt (f) ([1]; HPBCD 1.5%, 3d, n = 6): 280 g | Initial body weight Wt (i) ([1]; HPBCD 1.5%, 3d, n = 6): 296 g | Left kidney weight (Lt kd) ([1]; HPBCD 1.5%, 3d, n = 6): 1027 mg | Left kidney/body weight (Lt kd/wt) ([1]; HPBCD 1.5%, 3d, n = 6): 3.68 mg/g | Mortality ([1]; HPBCD 1.5%, 3d, n = 6): 0% | Right kidney weight (Rt kd) ([1]; HPBCD 1.5%, 3d, n = 6): 1009 mg | Right kidney/body weight (Rt kd/wt) ([1]; HPBCD 1.5%, 3d, n = 6): 3.61 mg/g | BUN ([1]; HPBCD 3%, 1d, n = 6): 15.7 mg/dL | Final body weight Wt (f) ([1]; HPBCD 3%, 1d, n = 6): 301 g | Initial body weight Wt (i) ([1]; HPBCD 3%, 1d, n = 6): 322 g | Left kidney weight (Lt kd) ([1]; HPBCD 3%, 1d, n = 6): 1034 mg | Left kidney/body weight (Lt kd/wt) ([1]; HPBCD 3%, 1d, n = 6): 3.43 mg/g | Mortality ([1]; HPBCD 3%, 1d, n = 6): 0% | Right kidney weight (Rt kd) ([1]; HPBCD 3%, 1d, n = 6): 1054 mg | Right kidney/body weight (Rt kd/wt) ([1]; HPBCD 3%, 1d, n = 6): 3.49 mg/g | BUN ([1]; HPBCD 3%, 3d, n = 6): 19.9 mg/dL | Final body weight Wt (f) ([1]; HPBCD 3%, 3d, n = 6): 267 g | Initial body weight Wt (i) ([1]; HPBCD 3%, 3d, n = 6): 275 g | Left kidney weight (Lt kd) ([1]; HPBCD 3%, 3d, n = 6): 995 mg | Left kidney/body weight (Lt kd/wt) ([1]; HPBCD 3%, 3d, n = 6): 3.72 mg/g | Mortality ([1]; HPBCD 3%, 3d, n = 6): 0% | Right kidney weight (Rt kd) ([1]; HPBCD 3%, 3d, n = 6): 1009 mg | Right kidney/body weight (Rt kd/wt) ([1]; HPBCD 3%, 3d, n = 6): 3.78 mg/g | BUN ([1]; HPBCD 6%, 1d, n = 6): 14.5 mg/dL | Final body weight Wt (f) ([1]; HPBCD 6%, 1d, n = 6): 227 g | Initial body weight Wt (i) ([1]; HPBCD 6%, 1d, n = 6): 240 g | Left kidney weight (Lt kd) ([1]; HPBCD 6%, 1d, n = 6): 1076 mg | Left kidney/body weight (Lt kd/wt) ([1]; HPBCD 6%, 1d, n = 6): 4.73 mg/g | Mortality ([1]; HPBCD 6%, 1d, n = 6): 0% | Right kidney weight (Rt kd) ([1]; HPBCD 6%, 1d, n = 6): 1066 mg | Right kidney/body weight (Rt kd/wt) ([1]; HPBCD 6%, 1d, n = 6): 4.70 mg/g | Rats died ([1]; HPBCD Groups, 1 and 3 day, in words): None of the rats | Albumin/Globulin (Ratio) [2, 5]: 0.9 ± 0.06 | Triglycerides [2, 5]: 35.0 ± 12.00 mg/dL | White blood cells [2, 5]: 7.4 ± 2.56 × 10^3 /mm^3 | Number of observations (antemortem) ([2]; female, 200 mg/kg i.v.): 0/5 | Number of deaths ([2]; female, 200 mg/kg i.v. every second day, 14 days): 0/5 | Body weight gain ([2]; female, week 1, 200 mg/kg i.v.): 16.0 ± 5.00 Grams | Food intake ([2]; female, week 1, 200 mg/kg i.v.): 107.9 ± 10.59 Grams | Body weight gain ([2]; female, week 2, 200 mg/kg i.v.): 18.0 ± 4.21 Grams | Food intake ([2]; female, week 2, 200 mg/kg i.v.): 112.1 ± 12.47 Grams | Adrenals weight to total body weight ratio ([2]; females): 0.0328 Weight Percent of Total Body W | Kidney weight to total body weight ratio ([2]; females): 0.9937 Weight Percent of Total Body W | Body weight gains vs saline control ([2]; in words): No difference | Food intake vs saline control ([2]; in words): No difference | Gross pathology ([2]; in words): No changes in gross pathology attributable to HPBCD treatment were observed | Abumin/Globulin (Ratio) [2, 6]: 0.9 ± 0.08 | Alanine amino transferase [2, 6]: 24.0 ± 6.70 IU/L | Albumin [2, 6]: 3.0 ± 0.08 G/dL | Alkaline phosphatase [2, 6]: 137.0 ± 26.20 IU/L | Aspartate amino transferase [2, 6]: 124.0 ± 37.36 IU/L | Basophils [2, 6]: 0.00 ± 0.00 × 10^3 /mm^3 | Blood urea nitrogen [2, 6]: 11.2 ± 0.87 mg/dL
